Data taken from ChEMBL document CHEMBL5046308, “Heterobifunctional Compounds as BRAF Degraders for Treating Cancer” (ACS Med Chem Lett, 2022).

Molecular target: Protein cereblon/Serine/threonine-protein kinase B-raf (Homo sapiens, UniProt P15056+Q96SW2, V600E)
Assay: Protac activity at CRBN/BRAF V600E mutant (unknown origin) assessed as BRAF V600E degradation by HiBit cellular BRAF V600E degradation assay

Protein cereblon/Serine/threonine-protein kinase B-raf, sequence (P15056 2-766 V600E limits assumed, stated change not applied): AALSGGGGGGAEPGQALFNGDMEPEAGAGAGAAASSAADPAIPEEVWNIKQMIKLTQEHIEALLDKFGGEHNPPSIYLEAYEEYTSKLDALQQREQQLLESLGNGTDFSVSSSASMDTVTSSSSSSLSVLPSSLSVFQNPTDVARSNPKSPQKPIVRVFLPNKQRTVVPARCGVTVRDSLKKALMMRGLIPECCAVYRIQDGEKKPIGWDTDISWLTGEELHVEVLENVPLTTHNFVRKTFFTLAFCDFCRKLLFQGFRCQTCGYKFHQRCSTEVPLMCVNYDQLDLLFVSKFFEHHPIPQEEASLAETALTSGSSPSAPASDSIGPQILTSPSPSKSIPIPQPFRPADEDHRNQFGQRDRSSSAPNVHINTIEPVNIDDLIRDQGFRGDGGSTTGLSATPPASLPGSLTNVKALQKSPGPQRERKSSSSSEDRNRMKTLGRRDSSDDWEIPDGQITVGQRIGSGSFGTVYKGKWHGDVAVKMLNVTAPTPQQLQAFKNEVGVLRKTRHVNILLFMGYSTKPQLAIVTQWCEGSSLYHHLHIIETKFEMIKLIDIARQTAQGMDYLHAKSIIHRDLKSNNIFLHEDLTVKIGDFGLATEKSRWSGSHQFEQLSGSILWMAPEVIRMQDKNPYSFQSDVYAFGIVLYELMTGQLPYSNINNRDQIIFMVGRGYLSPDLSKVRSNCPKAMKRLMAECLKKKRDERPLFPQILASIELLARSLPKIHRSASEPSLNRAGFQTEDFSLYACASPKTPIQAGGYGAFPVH
Protein cereblon/Serine/threonine-protein kinase B-raf, sequence (Q96SW2 whole entry, stated change not applied): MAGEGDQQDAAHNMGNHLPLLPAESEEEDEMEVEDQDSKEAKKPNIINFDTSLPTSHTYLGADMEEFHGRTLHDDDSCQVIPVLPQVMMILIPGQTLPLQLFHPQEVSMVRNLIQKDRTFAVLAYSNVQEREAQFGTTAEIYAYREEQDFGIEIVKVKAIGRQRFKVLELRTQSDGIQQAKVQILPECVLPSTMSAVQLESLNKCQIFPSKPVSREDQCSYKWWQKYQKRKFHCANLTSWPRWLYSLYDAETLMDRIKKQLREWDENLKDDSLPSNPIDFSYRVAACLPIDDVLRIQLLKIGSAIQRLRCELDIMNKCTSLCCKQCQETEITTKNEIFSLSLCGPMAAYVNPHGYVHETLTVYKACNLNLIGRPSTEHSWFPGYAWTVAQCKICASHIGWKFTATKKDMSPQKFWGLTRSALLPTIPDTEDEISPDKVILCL

Row | Structure (SMILES) | DC50 [nM]
1 | CCN(C)S(=O)(=O)Nc1ccc(F)c(C(=O)c2c[nH]c3ncc(-c4ccc(N5CCN(C(=O)CCCOc6cccc7c6C(=O)N(C6CCC(=O)NC6=O)C7=O)CC5)nc4)cc23)c1F (stereo unspecified) | 10
2 | CCN(C)S(=O)(=O)Nc1ccc(F)c(C(=O)c2c[nH]c3ncc(-c4ccc(N5CCN(C(=O)CCCOc6cccc7c6C(=O)N(C6CCC(=O)NC6=O)C7=O)CC5)cc4)cc23)c1F (stereo unspecified) | 16
3 | CCN(C)S(=O)(=O)Nc1ccc(F)c(C(=O)c2c[nH]c3ncc(-c4ccc(N5CCN(C(=O)[C@H]6C[C@H](Nc7cccc8c7C(=O)N(C7CCC(=O)NC7=O)C8=O)C6)CC5)cc4)cc23)c1F (stereo partly specified) | 23
4 | CCN(C)S(=O)(=O)Nc1ccc(F)c(C(=O)c2c[nH]c3ncc(-c4cnc(N5CCN(C(=O)CCCOc6cccc7c6C(=O)N(C6CCC(=O)NC6=O)C7=O)CC5)nc4)cc23)c1F (stereo unspecified) | 20
5 | CCN(C)S(=O)(=O)Nc1ccc(F)c(C(=O)c2c[nH]c3ncc(-c4ccc(N5CCN(C(=O)CCCNc6cccc7c6C(=O)N(C6CCC(=O)NC6=O)C7=O)CC5)nc4)cc23)c1F (stereo unspecified) | 26
6 | CCN(C)S(=O)(=O)Nc1ccc(F)c(C(=O)c2c[nH]c3ncc(-c4ccc(N5CCN(C(=O)[C@H]6C[C@H](Nc7cccc8c7C(=O)N(C7CCC(=O)NC7=O)C8=O)C6)CC5)nc4)cc23)c1F (stereo partly specified) | 10
